Assay results: US20240398812A1 (Caraway Therapeutics, Inc., priority 2021, published 2024)

Experiments:
Type in all cases: cell-based
human TRPML1 = human TRPML1 (Homo sapiens, UniProt Q9GZU1); experiment: Fluorescent TRPML1 assay (Fluo4-AM calcium fluorescence, HEK-293 Trex cells)
How it was run: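 Tet-inducible HEK-293 Trex cells stably expressing surface-targeted mutant human TRPML1, induced with 0.5 ug/mL doxycycline overnight, loaded with Fluo4-AM and suspended in Ringer's with 10 mM calcium. Compounds tested from 20 μM to 6 nM final, half-log steps, in triplicate; fluorescence (ex 480/em 540) normalised to plate controls, EC50 by non-linear regression.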

TRPML2 = target: T1, TRPML2 (Homo sapiens, UniProt Q8IZK6); experiment: Fluorescent TRPML2 assay (as for TRPML1)
T1 construct: expressed in transfected cells
T1 sequence (Q8IZK6 1-566): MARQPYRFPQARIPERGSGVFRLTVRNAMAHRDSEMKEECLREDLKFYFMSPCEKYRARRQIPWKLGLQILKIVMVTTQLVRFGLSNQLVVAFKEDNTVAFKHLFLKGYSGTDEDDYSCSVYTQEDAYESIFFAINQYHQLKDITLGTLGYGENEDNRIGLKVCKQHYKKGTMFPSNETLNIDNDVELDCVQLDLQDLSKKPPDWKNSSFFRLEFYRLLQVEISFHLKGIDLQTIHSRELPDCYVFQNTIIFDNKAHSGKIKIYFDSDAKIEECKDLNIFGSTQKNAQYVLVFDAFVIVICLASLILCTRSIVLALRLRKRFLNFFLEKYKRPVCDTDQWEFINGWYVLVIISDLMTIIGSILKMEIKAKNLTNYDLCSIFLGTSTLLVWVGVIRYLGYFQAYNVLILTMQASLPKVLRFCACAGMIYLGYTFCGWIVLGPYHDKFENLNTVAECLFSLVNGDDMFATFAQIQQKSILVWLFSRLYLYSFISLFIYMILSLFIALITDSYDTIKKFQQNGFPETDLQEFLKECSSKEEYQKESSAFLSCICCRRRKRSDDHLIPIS
Experimental: HEK-293 Trex cells were stably transfected with a construct consisting of the human coding sequence for TRPML1 cloned into the tet-inducible plasmid pCDNA5 T/O. Mutations were introduced into the TRPML1 sequence to facilitate expression on the cell surface (Silvia Vergarajauregui, Rosa Puertollano Traffic. 2006 March; 7 (3): 337-353). Briefly, the cells are cultured in 150 mm round tissue culture dishes containing 20 mL of media. The day before the assay the cells are rinsed with DPBS —Ca—Mg and then treated briefly with Trypsin-EDTA. The Trypsin-EDTA is diluted with growth media, and cells are counted. 38×10^6 cells are re-plated into 150 mm round tissue culture dishes in media containing 0.5 ug/mL doxycycline to induce expression of hTRPML1.
The day of the experiment cells are lifted from the plates as above and collected by centrifugation. The cells are then suspended in dye loading buffer consisting of Ringer's solution supplemented with 0.1% Pluronic Acid and 1 micromolar Fluo4-AM dye. Cells are loaded for ˜60 minutes in the dark with occasional mixing. The cells are collected by centrifugation, the loading media aspirated, and the cells resuspended in 25 mL Ringer's solution and incubated ˜60 minutes in the dark. The cells are again collected by centrifugation, rinsed in Ringer's Solution and resuspended to 0.2×10^6 cells/mL in modified Ringer's solution containing 10 mM calcium.
Compounds are dissolved to a concentration of 10 millimolar with DMSO. Compound plates are created by dispensing compounds into 384 well black wall clear bottom plates (Greiner 781091). Positive and negative controls are included on each plate. Typically, different amounts of each compound are tested ranging from 100 nanoMoles (20 micromolar final concentration) decreasing in half-log steps to 31 picoMoles (6 nanomolar final concentration). Each concentration is typically tested in triplicate.
50 microliters of dye-loaded cells are dispensed into each well of the compound assay plate created above. The fluorescence in each well is then determined with an excitation wavelength of 480 nm and an emission wavelength of 540 nm using either a Molecular Devices SpectraMax multimode plate reader or a Hamamatsu FDSS/uCell plate imager.
The resulting fluorescence for each well is exported as an ascii file and loaded into our LIMS for analysis. The percent activity of each compound at each concentration is determined by comparison to the positive and negative control wells included in each plate.
Assays for TRPML2 and TRPML3 were performed as above for TRPML1, by substituting the appropriate TRPML2 or TRPML3 subtype for the TRPML1.
EC50 values were calculated using a non-linear regression of Prism. In the table, “A” indicates an EC50 of less than 100 nM, “B” indicates an EC50 range from 100 nM to 500 nM; “C” indicates an EC50 range from 500 nM to 2 μM; and “D” indicates an EC50 greater than 2 μM.

TRPML3 = target: T2, TRPML3 (Homo sapiens, UniProt Q8TDD5); experiment: Fluorescent TRPML3 assay (as for TRPML1)
T2 construct: expressed in transfected cells
T2 sequence (Q8TDD5 1-553): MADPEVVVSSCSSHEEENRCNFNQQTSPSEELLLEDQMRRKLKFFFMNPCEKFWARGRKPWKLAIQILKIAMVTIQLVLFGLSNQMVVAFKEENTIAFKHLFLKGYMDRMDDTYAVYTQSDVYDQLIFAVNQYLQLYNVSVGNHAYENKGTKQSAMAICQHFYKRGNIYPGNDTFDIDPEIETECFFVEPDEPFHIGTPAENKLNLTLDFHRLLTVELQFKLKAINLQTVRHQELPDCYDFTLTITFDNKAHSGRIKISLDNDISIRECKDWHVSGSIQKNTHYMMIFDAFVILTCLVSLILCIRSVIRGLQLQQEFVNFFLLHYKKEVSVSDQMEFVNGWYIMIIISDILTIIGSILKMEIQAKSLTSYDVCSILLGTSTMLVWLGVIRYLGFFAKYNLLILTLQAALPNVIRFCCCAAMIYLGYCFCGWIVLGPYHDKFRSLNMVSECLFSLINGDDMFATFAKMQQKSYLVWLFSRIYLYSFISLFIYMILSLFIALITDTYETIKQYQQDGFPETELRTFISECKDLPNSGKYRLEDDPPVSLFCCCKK
How it was run: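 HEK-293 Trex cells with tet-inducible (0.5 ug/mL doxycycline, overnight) surface-targeted mutant channel, Fluo4-AM loaded, suspended in Ringer's with 10 mM calcium. Compounds tested 20 µM to 6 nM final, half-log steps, triplicate; fluorescence at ex 480/em 540 nm. EC50 by non-linear regression of percent activity versus plate controls.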

Chain of human TRPML1 (Q9GZU1 whole entry L15A/L16A/L577A/L578A, form open): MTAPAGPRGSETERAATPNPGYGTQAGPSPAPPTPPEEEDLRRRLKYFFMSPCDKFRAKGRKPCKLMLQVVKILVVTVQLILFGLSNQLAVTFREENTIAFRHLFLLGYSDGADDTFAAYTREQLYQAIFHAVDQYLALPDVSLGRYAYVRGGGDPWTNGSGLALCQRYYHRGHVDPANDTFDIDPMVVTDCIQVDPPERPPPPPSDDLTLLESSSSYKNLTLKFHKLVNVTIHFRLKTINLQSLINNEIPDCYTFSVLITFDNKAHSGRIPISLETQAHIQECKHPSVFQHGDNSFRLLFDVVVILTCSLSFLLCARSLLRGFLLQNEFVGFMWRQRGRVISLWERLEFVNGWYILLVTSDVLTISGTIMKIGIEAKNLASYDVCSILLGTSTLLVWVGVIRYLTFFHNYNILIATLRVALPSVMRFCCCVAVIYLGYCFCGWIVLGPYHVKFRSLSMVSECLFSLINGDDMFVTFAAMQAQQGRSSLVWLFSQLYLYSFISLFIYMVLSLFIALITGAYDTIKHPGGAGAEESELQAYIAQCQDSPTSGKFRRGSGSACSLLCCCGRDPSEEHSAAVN

| Compound | EC50 (human TRPML1; Table 3, compounds 101-177) | EC50 (TRPML3; Table 3, compounds 101-177) | EC50 (TRPML3; Table 3, compounds 201-283) | EC50 (human TRPML1; Table 3, compounds 201-283) | other results |
| --- | --- | --- | --- | --- | --- |
| CC(C)C(=O)N1CCN(c2ncnc3c2c(-c2ccccc2F)cn3-c2cc(C#N)ccn2)C[C@H]1C [Compound 107, (R)-2-(5-(2-fluorophenyl)-4-(4-isobutyryl-3-methylpiperazin-1-yl)-7H-pyrrolo[2,3-d]pyrimidin-7-yl)isonicotinonitrile] | < 100 nM | < 100 nM | – | – | EC50 (TRPML2; Table 3, compounds 101-177): 100 to 500 nM |
| [2H]C([2H])([2H])C(C(=O)N1C[C@H](C)N(c2ncnc3c2c(-c2ccccc2F)cn3-c2cc(C#N)ccn2)C[C@H]1C)C([2H])([2H])[2H] (single isomer, unassigned) [Compound 234] | – | – | < 100 nM | – | EC50 (TRPML2; Table 3, compounds 201-283): 100 to 500 nM |
| CC(C)C(=O)N1C[C@H](C)N(c2ncnc3c(-c4cc(C#N)ccn4)cn(-c4ccccc4F)c23)C[C@H]1C [Compound 213, 2-(5-(2-fluorophenyl)-4-((2S,5R)-4-isobutyryl-2,5-dimethylpiperazin-1-yl)-5H-pyrrolo [3,2-d]pyrimidin-7-yl)isonicotinonitrile] | – | – | < 100 nM | < 100 nM | – |
| CC(C)C(=O)N1C[C@H](C)N(c2ncnc3c2c(N2CCC2)cn3-c2cc(F)cc(F)c2)C[C@H]1C [Compound 218, 1-((2R,5S)-4-(5-(azetidin-1-yl)-7-(3,5-difluorophenyl)-7H-pyrrolo[2,3-d]pyrimidin-4-yl)-2,5-dimethylpiperazin-1-yl)-2-methylpropan-1-one] | – | – | 500 to 2000 nM | 100 to 500 nM | – |
| COC1(C(=O)N2CCN(c3ncnc4c3c(-c3ccccc3F)cn4-c3cc(C#N)ccn3)[C@@H](C)C2)CC1 [Compound 243, (S)-2-(5-(2-fluorophenyl)-4-(4-(1-methoxycyclopropane-1-carbonyl)-2-methylpiperazin-1-yl)-7H-pyrrolo[2,3-d]pyrimidin-7-yl)isonicotinonitrile] | – | – | 100 to 500 nM | < 100 nM | – |
| CC(C)C(=O)N1CCN(c2ncnc3c2c(-c2ccccc2F)cn3-c2cc(C#N)n(C)c2)[C@@H](C)C1 [Compound 157, (S)-4-(5-(2-fluorophenyl)-4-(4-isobutyryl-2-methylpiperazin-1-yl)-7H-pyrrolo[2,3-d]pyrimidin-7-yl)-1-methyl-1H-pyrrole-2-carbonitrile] | 100 to 500 nM | 500 to 2000 nM | – | – | – |
| [2H]C([2H])([2H])[C@@H]1CN(c2ncnc3c2c(-c2ccccc2F)cn3-c2cc(C#N)ccn2)[C@@H](C)CN1C(=O)C(C)C (single isomer, unassigned) [Compound 281] | – | – | 100 to 500 nM | – | EC50 (TRPML2; Table 3, compounds 201-283): 500 to 2000 nM |
| [2H]C([2H])([2H])C([2H])(C(=O)N1C[C@H](C)N(c2ncnc3c2c(-c2ccccc2F)cn3-c2cc(C#N)ccn2)C[C@H]1C)C([2H])([2H])[2H] (single isomer, unassigned) [Compound 233] | – | – | < 100 nM | – | EC50 (TRPML2; Table 3, compounds 201-283): < 100 nM |
| Cc1nccnc1-c1cn(-c2cc(F)cc(F)c2)c2ncnc(N3C[C@@H](C)N(C(=O)CC(C)C)C[C@@H]3C)c12 [Compound 177, 1-((2R,5S)-4-(7-(3,5-difluorophenyl)-5-(3-methylpyrazin-2-yl)-7H-pyrrolo[2,3-d]pyrimidin-4-yl)-2,5-dimethylpiperazin-1-yl)-3-methylbutan-1-one] | 500 to 2000 nM | > 2000 nM | – | – | – |
| CC(C)C(=O)N1CCN(c2ncnc3c2c(-c2ccccc2F)cn3-c2nccc(C#N)n2)[C@@H](C)C1 [Compound 156, (S)-2-(5-(2-fluorophenyl)-4-(4-isobutyryl-2-methylpiperazin-1-yl)-7H-pyrrolo[2,3-d]pyrimidin-7-yl)pyrimidine-4-carbonitrile] | 500 to 2000 nM | 500 to 2000 nM | – | – | – |
| C[C@@H]1CN(c2ncnc3c2c(C(F)(F)F)cn3-c2cccc(C#N)c2)[C@@H](C)CN1C(=O)C(C)(C)C [Compound 222, 3-(4-((2S,5R)-2,5-dimethyl-4-pivaloylpiperazin-1-yl)-5-(trifluoromethyl)-7H-pyrrolo[2,3-d]pyrimidin-7-yl)benzonitrile] | – | – | 100 to 500 nM | < 100 nM | – |

The next lines start with results.

| EC50 (human TRPML1; Table 3, compounds 101-177) | EC50 (TRPML3; Table 3, compounds 101-177) | EC50 (TRPML3; Table 3, compounds 201-283) | EC50 (human TRPML1; Table 3, compounds 201-283) | Compound | other results |
| --- | --- | --- | --- | --- | --- |
| – | – | 100 to 500 nM | 100 to 500 nM | CC(C)C(=O)N1CCN(c2ncnc3c(-c4cc(C#N)ccn4)cn(-c4ccccc4F)c23)[C@@H](C)C1 [Compound 212, (S)-2-(5-(2-fluorophenyl)-4-(4-isobutyryl-2-methylpiperazin-1-yl)-5H-pyrrolo[3,2-d]pyrimidin-7-yl)isonicotinonitrile] | – |
| < 100 nM | < 100 nM | – | – | CC(C)C(=O)N1C[C@H](C)N(c2ncnc3c2c(-c2ccccc2F)cn3-c2cc(F)ccn2)C[C@H]1C [Compound 167, 1-((2R,5S)-4-(5-(2-fluorophenyl)-7-(4-fluoropyridin-2-yl)-7H-pyrrolo[2,3-d]pyrimidin-4-yl)-2,5-dimethylpiperazin-1-yl)-2-methylpropan-1-one] | – |
| 100 to 500 nM | 100 to 500 nM | – | – | CC(C)C(=O)N1CCN(c2ncnc3c2c(-c2ccccc2F)cn3-c2cc(C#N)cnn2)[C@@H](C)C1 [Compound 171, (S)-6-(5-(2-fluorophenyl)-4-(4-isobutyryl-2-methylpiperazin-1-yl)-7H-pyrrolo[2,3-d]pyrimidin-7-yl)pyridazine-4-carbonitrile] | – |
| < 100 nM | 100 to 500 nM | – | – | C[C@H]1CN(C(=O)C(C)(C)O)CCN1c1ncnc2c1c(-c1ccccc1F)cn2-c1cc(C#N)ccn1 [Compound 159, (S)-2-(5-(2-fluorophenyl)-4-(4-(2-hydroxy-2-methylpropanoyl)-2-methylpiperazin-1-yl)-7H-pyrrolo[2,3-d]pyrimidin-7-yl)isonicotinonitrile] | – |
| 500 to 2000 nM | 500 to 2000 nM | – | – | CC(C)C(=O)N1CCN(c2ncnc3c2c(-c2ccccn2)cn3-c2cc(C#N)ccn2)C[C@H]1C [Compound 132, (R)-2-(4-(4-isobutyryl-3-methylpiperazin-1-yl)-5-(pyridin-2-yl)-7H-pyrrolo[2,3-d]pyrimidin-7-yl)isonicotinonitrile] | – |
